# Reference: ChEMBL document CHEMBL5678818, “Discovery of potent SOS1 inhibitors that block RAS activation via disruption of the RAS-SOS1 interaction” (Proc Natl Acad Sci U S A, 2019)
# How the values were obtained:
# [1] = target: Calcium/calmodulin-dependent protein kinase kinase 2 (Homo sapiens) (UniProt Q96RR4); experiment: Inhibition of CAMKK2 (unknown origin) assessed as residual activity at 100 nM by KINOMEscan analysis relative to control
# [2] = target: T1, Cyclin-dependent kinase-like 2 (Homo sapiens) (UniProt Q92772); experiment: Inhibition of CDKL2 (unknown origin) assessed as residual activity at 100 nM by KINOMEscan analysis relative to control
# T1 sequence (whole entry): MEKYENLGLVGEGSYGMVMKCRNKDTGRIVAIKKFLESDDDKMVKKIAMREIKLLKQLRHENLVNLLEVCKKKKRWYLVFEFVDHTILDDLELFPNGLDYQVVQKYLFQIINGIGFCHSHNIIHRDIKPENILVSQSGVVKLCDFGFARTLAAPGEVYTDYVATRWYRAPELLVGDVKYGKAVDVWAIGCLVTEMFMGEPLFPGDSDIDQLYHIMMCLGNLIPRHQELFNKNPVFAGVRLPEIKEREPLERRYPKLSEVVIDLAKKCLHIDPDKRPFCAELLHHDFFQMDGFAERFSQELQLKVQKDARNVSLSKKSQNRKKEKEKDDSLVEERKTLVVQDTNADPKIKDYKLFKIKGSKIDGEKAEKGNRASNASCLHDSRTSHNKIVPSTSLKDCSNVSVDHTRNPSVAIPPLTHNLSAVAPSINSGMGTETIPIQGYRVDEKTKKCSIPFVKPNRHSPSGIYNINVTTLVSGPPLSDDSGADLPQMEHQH
# [3] = target: Serine/threonine-protein kinase Chk2 (Homo sapiens) (UniProt O96017); experiment: Inhibition of CHEK2 (unknown origin) assessed as residual activity at 100 nM by KINOMEscan analysis relative to control
# Serine/threonine-protein kinase Chk2 (Homo sapiens), sequence (O96017 whole entry): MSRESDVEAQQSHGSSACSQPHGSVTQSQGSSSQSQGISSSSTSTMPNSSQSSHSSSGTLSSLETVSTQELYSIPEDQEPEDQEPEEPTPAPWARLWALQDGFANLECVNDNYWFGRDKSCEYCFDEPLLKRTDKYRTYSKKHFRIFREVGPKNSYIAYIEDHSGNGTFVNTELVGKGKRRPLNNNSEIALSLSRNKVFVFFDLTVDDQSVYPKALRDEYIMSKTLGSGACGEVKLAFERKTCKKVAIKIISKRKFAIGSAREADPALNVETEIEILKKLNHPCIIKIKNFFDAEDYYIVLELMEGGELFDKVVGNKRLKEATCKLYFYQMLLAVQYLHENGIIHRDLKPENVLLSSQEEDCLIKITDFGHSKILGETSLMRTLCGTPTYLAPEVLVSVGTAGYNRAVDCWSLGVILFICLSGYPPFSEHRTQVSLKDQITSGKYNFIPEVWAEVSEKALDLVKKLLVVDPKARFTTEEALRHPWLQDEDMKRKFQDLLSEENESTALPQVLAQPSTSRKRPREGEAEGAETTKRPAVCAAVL
# [4] = target: Dual specificity protein kinase CLK4 (Homo sapiens) (UniProt Q9HAZ1); experiment: Inhibition of CLK4 (unknown origin) assessed as residual activity at 100 nM by KINOMEscan analysis relative to control
# Dual specificity protein kinase CLK4 (Homo sapiens), sequence (Q9HAZ1 whole entry, looked up): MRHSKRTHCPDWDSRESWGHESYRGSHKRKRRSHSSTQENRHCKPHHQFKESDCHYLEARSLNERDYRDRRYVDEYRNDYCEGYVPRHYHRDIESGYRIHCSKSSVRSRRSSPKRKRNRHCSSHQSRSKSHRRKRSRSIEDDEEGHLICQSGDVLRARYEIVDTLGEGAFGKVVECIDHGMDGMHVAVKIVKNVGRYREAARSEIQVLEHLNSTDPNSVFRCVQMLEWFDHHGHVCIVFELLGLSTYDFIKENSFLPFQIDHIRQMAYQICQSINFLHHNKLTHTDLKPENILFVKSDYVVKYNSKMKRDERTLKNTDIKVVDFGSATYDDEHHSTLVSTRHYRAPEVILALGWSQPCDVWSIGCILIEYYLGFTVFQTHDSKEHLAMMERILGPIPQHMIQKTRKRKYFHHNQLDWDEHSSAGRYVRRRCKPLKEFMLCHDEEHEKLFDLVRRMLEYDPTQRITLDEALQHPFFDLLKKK
# [5] = test system: Epidermal growth factor receptor (Homo sapiens), P00533 [G719C]; experiment: Inhibition of EGFR G719C mutant (unknown origin) assessed as residual activity at 100 nM by KINOMEscan analysis relative to control
# [6] = test system: Epidermal growth factor receptor (Homo sapiens), P00533 [UNDEFINED MUTATION]; experiment: Inhibition of EGFR L747-S752del/P753S mutant (unknown origin) assessed as residual activity at 100 nM by KINOMEscan analysis relative to control
# [7] = target: T2, Serine/threonine-protein kinase LATS2 (Homo sapiens) (UniProt Q9NRM7); experiment: Inhibition of LATS2 (unknown origin) assessed as residual activity at 100 nM by KINOMEscan analysis relative to control
# T2 sequence (whole entry): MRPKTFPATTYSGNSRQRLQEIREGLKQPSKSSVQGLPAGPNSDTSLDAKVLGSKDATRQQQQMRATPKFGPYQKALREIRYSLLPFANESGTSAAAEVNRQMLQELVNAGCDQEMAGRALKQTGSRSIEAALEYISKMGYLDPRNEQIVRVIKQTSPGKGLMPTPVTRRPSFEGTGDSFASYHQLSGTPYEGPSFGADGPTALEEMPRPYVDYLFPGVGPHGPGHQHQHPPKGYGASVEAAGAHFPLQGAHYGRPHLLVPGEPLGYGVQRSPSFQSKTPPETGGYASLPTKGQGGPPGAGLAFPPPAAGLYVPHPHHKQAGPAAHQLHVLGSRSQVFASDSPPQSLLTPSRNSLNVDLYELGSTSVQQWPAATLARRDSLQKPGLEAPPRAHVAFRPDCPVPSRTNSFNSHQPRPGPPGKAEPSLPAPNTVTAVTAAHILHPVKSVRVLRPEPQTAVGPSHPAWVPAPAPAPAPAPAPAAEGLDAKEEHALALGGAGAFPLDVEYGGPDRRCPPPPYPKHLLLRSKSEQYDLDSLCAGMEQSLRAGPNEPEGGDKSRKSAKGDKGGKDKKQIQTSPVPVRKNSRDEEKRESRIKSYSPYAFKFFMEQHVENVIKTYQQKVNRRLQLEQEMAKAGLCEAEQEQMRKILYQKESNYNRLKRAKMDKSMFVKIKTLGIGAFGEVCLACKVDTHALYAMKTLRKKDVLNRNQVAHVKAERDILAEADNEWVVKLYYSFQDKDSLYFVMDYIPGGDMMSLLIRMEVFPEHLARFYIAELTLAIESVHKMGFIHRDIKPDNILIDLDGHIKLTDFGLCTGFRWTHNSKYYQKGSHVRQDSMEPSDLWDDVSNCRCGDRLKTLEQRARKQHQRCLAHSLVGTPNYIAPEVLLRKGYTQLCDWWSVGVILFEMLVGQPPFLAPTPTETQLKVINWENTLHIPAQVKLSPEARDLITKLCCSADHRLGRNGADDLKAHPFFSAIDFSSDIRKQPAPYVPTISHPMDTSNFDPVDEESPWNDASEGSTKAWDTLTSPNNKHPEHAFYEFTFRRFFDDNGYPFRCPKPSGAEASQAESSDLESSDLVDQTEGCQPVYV
# [8] = target: Serine/threonine-protein kinase Nek7 (Homo sapiens) (UniProt Q8TDX7); experiment: Inhibition of NEK7 (unknown origin) assessed as residual activity at 100 nM by KINOMEscan analysis relative to control
# Serine/threonine-protein kinase Nek7 (Homo sapiens), sequence (Q8TDX7 whole entry, looked up): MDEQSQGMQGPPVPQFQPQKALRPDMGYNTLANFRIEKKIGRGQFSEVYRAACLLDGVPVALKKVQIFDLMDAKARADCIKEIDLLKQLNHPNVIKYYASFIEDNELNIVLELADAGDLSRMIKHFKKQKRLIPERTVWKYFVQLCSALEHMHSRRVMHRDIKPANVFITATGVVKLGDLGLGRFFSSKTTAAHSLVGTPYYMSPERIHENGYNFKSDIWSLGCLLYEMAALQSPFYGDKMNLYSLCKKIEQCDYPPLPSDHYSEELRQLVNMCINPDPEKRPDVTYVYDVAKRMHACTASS
# [9] = target: T3, Serine/threonine-protein kinase ULK3 (Homo sapiens) (UniProt Q6PHR2); experiment: Inhibition of ULK3 (unknown origin) assessed as residual activity at 100 nM by KINOMEscan analysis relative to control
# T3 sequence (whole entry): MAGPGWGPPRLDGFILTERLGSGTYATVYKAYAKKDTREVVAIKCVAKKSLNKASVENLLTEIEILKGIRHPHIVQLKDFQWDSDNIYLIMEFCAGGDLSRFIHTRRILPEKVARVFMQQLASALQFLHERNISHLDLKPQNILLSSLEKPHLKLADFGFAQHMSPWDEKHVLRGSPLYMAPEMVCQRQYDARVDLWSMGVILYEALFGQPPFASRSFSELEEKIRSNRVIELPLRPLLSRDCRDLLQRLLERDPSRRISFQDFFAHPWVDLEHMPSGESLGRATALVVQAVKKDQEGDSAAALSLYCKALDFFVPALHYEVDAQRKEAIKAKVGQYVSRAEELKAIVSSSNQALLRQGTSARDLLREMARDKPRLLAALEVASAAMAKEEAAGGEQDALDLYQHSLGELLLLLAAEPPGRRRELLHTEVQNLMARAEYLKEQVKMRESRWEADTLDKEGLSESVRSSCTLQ
# [10] = target: Mitogen-activated protein kinase kinase kinase 20 (Homo sapiens) (UniProt Q9NYL2); experiment: Inhibition of ZAK (unknown origin) assessed as residual activity at 100 nM by KINOMEscan analysis relative to control
# Mitogen-activated protein kinase kinase kinase 20 (Homo sapiens), sequence (Q9NYL2 2-800 limits assumed): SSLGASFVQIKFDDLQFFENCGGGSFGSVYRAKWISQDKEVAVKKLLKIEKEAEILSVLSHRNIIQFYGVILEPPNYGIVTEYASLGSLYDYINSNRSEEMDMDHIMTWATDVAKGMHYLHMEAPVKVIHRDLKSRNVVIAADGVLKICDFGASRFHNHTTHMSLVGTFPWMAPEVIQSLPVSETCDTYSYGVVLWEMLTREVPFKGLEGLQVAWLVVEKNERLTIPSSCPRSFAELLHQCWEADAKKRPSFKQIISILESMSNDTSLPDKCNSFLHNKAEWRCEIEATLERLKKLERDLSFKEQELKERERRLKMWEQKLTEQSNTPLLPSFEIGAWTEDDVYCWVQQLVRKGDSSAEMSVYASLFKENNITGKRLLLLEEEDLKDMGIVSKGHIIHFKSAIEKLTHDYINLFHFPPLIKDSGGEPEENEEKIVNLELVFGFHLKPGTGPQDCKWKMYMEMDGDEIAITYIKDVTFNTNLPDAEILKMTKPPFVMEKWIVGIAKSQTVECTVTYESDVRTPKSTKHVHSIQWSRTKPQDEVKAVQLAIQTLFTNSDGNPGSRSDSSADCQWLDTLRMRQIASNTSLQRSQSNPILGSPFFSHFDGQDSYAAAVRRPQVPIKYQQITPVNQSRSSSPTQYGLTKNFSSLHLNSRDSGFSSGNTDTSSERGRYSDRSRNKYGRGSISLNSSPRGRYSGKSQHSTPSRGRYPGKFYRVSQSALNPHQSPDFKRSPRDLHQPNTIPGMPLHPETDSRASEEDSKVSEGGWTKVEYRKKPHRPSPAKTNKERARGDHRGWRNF
# [11] = target: Peripheral plasma membrane protein CASK (Homo sapiens) (UniProt O14936); experiment: Inhibition of CASK (unknown origin) assessed as residual activity at 100 nM by KINOMEscan analysis relative to control
# Peripheral plasma membrane protein CASK (Homo sapiens), sequence (O14936 whole entry, looked up): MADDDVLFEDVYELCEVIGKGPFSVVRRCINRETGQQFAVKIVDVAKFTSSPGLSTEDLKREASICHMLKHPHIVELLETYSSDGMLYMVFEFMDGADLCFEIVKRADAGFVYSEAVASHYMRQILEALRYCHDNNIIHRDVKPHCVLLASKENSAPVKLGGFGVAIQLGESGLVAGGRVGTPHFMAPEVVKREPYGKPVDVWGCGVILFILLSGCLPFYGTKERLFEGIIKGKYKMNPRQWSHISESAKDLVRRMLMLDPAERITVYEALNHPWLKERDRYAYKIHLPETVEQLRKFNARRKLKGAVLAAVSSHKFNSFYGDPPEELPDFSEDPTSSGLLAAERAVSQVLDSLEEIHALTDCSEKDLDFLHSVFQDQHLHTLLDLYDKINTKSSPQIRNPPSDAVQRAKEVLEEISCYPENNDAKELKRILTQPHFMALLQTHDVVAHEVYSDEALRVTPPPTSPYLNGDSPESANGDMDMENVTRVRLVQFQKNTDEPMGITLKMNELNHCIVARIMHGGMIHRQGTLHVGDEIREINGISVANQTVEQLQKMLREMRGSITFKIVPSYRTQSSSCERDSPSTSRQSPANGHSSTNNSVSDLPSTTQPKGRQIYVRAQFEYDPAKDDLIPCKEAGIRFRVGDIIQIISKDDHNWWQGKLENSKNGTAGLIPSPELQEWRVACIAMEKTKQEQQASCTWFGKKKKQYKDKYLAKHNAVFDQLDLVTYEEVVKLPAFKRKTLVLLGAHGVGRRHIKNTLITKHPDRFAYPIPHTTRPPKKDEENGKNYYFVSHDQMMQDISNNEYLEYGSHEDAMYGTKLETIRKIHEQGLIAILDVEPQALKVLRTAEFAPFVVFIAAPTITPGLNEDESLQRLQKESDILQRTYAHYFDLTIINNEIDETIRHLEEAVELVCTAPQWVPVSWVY
# Calcium/calmodulin-dependent protein kinase kinase 2 (Homo sapiens), sequence (Q96RR4 2-588 limits assumed): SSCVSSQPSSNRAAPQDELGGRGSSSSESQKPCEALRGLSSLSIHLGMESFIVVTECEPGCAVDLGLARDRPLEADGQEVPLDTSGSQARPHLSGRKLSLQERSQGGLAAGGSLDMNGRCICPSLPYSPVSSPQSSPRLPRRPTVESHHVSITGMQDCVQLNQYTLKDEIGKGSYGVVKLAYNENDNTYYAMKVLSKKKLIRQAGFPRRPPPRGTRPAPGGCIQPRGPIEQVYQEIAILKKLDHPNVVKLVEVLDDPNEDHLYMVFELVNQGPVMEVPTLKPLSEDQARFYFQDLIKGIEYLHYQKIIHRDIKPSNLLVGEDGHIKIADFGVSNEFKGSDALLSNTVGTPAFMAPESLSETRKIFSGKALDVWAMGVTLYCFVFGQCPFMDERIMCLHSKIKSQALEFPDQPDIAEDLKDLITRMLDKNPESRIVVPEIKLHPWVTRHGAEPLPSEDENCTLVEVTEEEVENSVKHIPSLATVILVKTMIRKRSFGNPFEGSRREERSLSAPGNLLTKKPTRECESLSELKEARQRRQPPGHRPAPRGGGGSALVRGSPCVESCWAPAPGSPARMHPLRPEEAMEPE
structure (smiles),measurement,setting,value
COc1cc2ncnc(N[C@H](C)c3cccc4ccccc34)c2cc1OC,Activity,[1],60%
same,Activity,[2],88%
same,Activity,[3],100%
same,Activity,[4],87%
same,Activity,[5],89%
same,Activity,[6],90%
same,Activity,[7],87%
same,Activity,[8],100%
same,Activity,[9],89%
same,Activity,[10],51%
same,Activity,[11],72%
